Here are results for one compound from PMC10119423, “From PERK to RIPK1: Design, synthesis and evaluation of novel potent and selective necroptosis inhibitors” (Frontiers in Chemistry, 2023).

Bounds are passed on as bounds.

The target in assay [1] is T1, PERK (Mus musculus, UniProt Q9Z2B5).
T1 construct: Immortalized MEFs were pretreated for 30 min with increasing concentrations of GSK’157 and the indicated compounds and stimulated with tunicamycin; endogenous in cells; host or cells: immortalized mouse embryonic fibroblasts (MEFs, C57Bl6/J)
T1 sequence (Q9Z2B5 29-1114): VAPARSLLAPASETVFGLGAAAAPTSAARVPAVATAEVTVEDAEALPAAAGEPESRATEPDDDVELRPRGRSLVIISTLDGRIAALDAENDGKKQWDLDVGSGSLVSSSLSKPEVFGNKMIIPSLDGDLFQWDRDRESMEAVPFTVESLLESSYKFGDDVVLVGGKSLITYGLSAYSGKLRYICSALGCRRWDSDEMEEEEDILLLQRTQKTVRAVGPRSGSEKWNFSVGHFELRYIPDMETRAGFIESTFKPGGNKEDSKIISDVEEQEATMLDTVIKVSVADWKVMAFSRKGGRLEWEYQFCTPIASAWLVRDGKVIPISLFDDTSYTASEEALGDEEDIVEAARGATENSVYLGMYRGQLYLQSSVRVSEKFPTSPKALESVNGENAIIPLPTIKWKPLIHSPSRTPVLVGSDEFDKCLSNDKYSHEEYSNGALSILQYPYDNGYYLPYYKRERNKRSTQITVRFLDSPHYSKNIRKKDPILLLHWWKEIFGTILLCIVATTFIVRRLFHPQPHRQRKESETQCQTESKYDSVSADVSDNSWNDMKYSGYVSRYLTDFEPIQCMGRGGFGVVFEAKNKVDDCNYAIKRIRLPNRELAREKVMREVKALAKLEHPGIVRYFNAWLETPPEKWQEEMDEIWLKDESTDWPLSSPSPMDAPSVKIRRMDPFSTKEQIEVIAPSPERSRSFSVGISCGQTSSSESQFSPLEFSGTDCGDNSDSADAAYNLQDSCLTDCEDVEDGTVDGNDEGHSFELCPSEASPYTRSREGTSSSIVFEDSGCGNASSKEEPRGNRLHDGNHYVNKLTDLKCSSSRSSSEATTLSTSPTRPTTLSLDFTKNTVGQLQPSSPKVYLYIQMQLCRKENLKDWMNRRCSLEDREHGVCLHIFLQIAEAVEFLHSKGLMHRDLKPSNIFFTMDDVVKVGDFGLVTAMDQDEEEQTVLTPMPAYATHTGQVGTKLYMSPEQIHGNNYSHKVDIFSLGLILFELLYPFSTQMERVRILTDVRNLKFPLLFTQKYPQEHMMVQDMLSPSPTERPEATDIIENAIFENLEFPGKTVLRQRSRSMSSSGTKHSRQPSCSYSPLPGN
In words: PERK autophosphorylation by Western blot in tunicamycin-stimulated immortalized MEFs. It counts as cell-based. The protocol:
MEFs were seeded in 6-well plates at a density of 300.000 cells/well in 2 mL. The next day, the cells were suspended in 1 mL of medium and pre-treated for 30 min with the indicated compounds at 1/5 dilutions series for PERK ranging from 5 to 0.04 µM and 1 μg/mL of Tm followed by 4 h treatment with 20 ng/mL of hTNF. For RIPK1, the cells were pre-treated at 1/10 dilutions series ranging from 10 to 0.01 nM, 50 µM zVAD.fmk and 1 µM TAKi before stimulation with 20 ng/mL of hTNF for 2.5 h. Then, the cells were washed two times with 1 mL of ice-cold PBS before lysis in 0.2 mL of Laemmli buffer 1x (10% (w/v) SDS, 50% glycerol, 0.5% bromophenol blue, 250 mM Tris–HCl pH 6.8) and 250 mM of dithiothreitol (DTT). The cell lysate was then collected and boiled at 95 °C for 10min and stored at −20°C. Proteins expression was later monitored by immunoblotting.
Their activities were evaluated by comparing the intensity of the signal to unstimulated MEFs (considered as zero phosphorylation) and Tunicamycin stimulated cells (considered as 100% PERK phosphorylation). […] The MEFs were pre-incubated for 30 min with the different compounds (0.01 nM–1000 nM) and then stimulated with human TNF (20 ng/mL) for 2.5 h. Similar to the PERK assessment, IC50 values for RIPK1 inhibition were estimated as a range of concentrations, and are reported in Table 1.
(In western blotting, separated proteins are transferred to a membrane and probed.)

Assay [2] relates to MEFs. Briefly: RIPK1 kinase-dependent apoptosis (hTNF + TAK1i) in MEFs, Sytox Green. The conditions noted are these: Mus musculus, TAK1i + hTNF (100 pg/mL). It counts as cell-based. An excerpt: In MEFs, TNF together with the pan caspases inhibitor zVAD.fmk induces RIPK1-dependent necroptosis while TNF together with TAK1 inhibitor induces RIPK1 kinase-dependent apoptosis. We also included the conditions selected for the Western blot experiments, where necroptosis was induced by the combination of hTNF, zVAD.fmk and TAK1 inhibitor.

The subject of assay [3] is HT-29. Briefly: Necroptosis (hTNF + TAK1i + zVAD.fmk) in HT-29 cells, Sytox Green. The conditions noted are these: Homo sapiens, HT-29, read-out: Necroptosis hTNF + TAK1i + zVAD.fmk HT-29 IC50.
Description: In brief, the cells were seeded in duplicate at 10,000 cells per well in a 96-well adherent plate and incubated overnight at 37°C with 5% CO2. […] All the compound stock solutions were prepared in DMSO at 200 µM concentration. After stimulating the cells with human TNF at 20 ng/mL the plate was transferred to the incubator. Sytox Green intensity was measured in function of time at 0, 14 and 24 h with an excitation filter of 485 nm, an emission filter of 520 nm. The cell death was calculated by subtracting the background fluorescence from the induced Sytox Green fluorescence and by dividing the obtained result by the maximal fluorescence (minus the background fluorescence) obtained by permeabilization of the cells by using Triton X-100 at a final concentration of 0.1%. Curves were plotted in GraphPad 9 for the IC50 calculation.
To induce necroptosis in human colorectal adenocarcinoma cell line (HT-29) together with hTNF and the pan caspases inhibitor zVAD.fmk, TAK1 inhibitor is also needed.

As usually defined, the IC50 is the concentration that inhibits the measured activity by half. As for `Cn1cc(-c2ccc3c(c2F)CCN3C(=O)Cc2ccc(C(F)(F)F)cn2)c2c(N)ncnc21` [Compound 22], the “PERK inhibition at the tested concentrations (in words)” value in assay [1] (MEFs, Western blot, 0.04, 0.2, 1 and 5 µM, highest concentration tested 5 µM) is on record as “no PERK inhibition”. In addition, the IC50 in assay [1] (immortalized MEFs, 30 min pretreatment, tunicamycin 1 μg/ml for 4 h, PERK autophosphorylation, read-out: PERK inhibition (IC50 estimated from a Western blot)) was > 5000 nM; in assay [2], 3.3 nM; in assay [3], 6.5 nM.
